Source: PMC5309242, “Substrate-Dependence of Competitive Nucleotide Pyrophosphatase/Phosphodiesterase1 (NPP1) Inhibitors” (Frontiers in Pharmacology, 2017)
Where two headings read alike, the source gives them in different places. Marks after values point to notes of the source that are not given here.

Experiments:
human NPP1 [1] = target: T1, human NPP1 (Homo sapiens, UniProt P22413); set-up: method as in Chang et al., 2014; details: more potent vs. p-Nph-5′-TMP than vs. ATP; ref Chang et al., 2014; cited from earlier work
T1 construct: Human recombinant soluble NPP1 (Val191—Leu591) expressed in murine myeloma NS0 cells; His-tag (N); purchased R&D Systems GmbH (Wiesbaden, Germany); host or cells: murine myeloma NS0 cells
T1 sequence (P22413 191-591): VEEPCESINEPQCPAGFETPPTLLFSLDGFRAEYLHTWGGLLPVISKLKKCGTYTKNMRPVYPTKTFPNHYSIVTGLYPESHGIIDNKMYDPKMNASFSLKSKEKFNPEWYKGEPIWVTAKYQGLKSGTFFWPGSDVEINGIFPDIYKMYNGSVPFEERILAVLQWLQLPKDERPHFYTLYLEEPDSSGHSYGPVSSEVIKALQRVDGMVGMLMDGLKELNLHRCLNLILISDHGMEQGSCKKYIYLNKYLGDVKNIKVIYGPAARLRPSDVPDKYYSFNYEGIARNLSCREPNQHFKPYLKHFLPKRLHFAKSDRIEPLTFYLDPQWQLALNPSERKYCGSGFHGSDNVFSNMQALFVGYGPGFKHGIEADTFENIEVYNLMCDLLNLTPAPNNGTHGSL

human NPP1 [2] = target: T1, human NPP1; assay: Inhibition constants and mechanism of inhibition (Hanes-Woolf plots) compared across all investigated substrates; assay type: biochemical; details: for Inhibition type: Hanes-Woolf plots, same type vs. all three substrates (ATP, p-Nph-5′-TMP, p-Nph-5′-AMP)
Method: (§2) The instrumentations and operation conditions for the experiments were the same as those described in the Sections Determination of Kinetic Parameters of Artificial Substrates and Determination of Concentration-Dependent Inhibition Curves. Each analysis was performed in three separate experiments. The inhibition type of each inhibitor was then evaluated graphically from the Hanes-Woolf plots. For the determination of the (α)Ki-values the slope of the reciprocal lines from the Hanes-Woolf plot were plotted as a function of inhibitor concentrations using Prism 5.0.

human NPP1 [3] = target: T1, human NPP1; assay: NPP1 inhibition vs. new artificial substrate p-Nph-5′-AMP (p-nitrophenolate at 400 nm); assay type: biochemical
Method: (§3) For testing vs. both synthetic substrates, p-Nph-5′-TMP and p-Nph-5′-AMP, solutions containing different concentrations of each inhibitor were prepared with 10 mM CHES buffer (See Section Determination of Kinetic Parameters of Artificial Substrates) containing 400 μM p-Nph-5′-TMP, or p-Nph-5′-AMP, respectively, in a final volume of 100 μl. […] Therefore, measurements were not performed colorimetrically, but by capillary electrophoresis (CE) with DAD detection of the formed p-nitrophenolate at 400 nm. The CE instrumentation and operation conditions were as follows: The CE instrumentation and operating conditions were as follows: P/ACE MDQ capillary electrophoresis system (Beckman Instruments, Fullerton, CA, USA) with a DAD detection system, polyacrylamide-coated capillaries of 50 cm effective length × 50 μm (id) obtained from CS Chromatographie GmbH (Langerwehe, Germany), 100 mM phosphate buffer (pH 6.5) as running buffer, electrokinetic injection (−6 kV, 60 s), separation voltage of −20 kV. The measurement was performed twice in three different experiments. Data collection and peak area analysis were performed by the 32 Karat software obtained from Beckman Coulter (Fullerton, CA, USA). The IC50-values of test compounds for each substrate were calculated by plotting of three independent experiments using the program Prism 5.0 (GraphPad software, San Diego, CA, USA).
as §2

human NPP1 [4] = target: T1, human NPP1; assay: NPP1 inhibition vs. artificial substrate p-Nph-5′-TMP (p-nitrophenolate at 400 nm); assay type: biochemical
Method: as §3, §2

human NPP1 [5] = target: T1, human NPP1; assay: NPP1 inhibition vs. natural substrate ATP (CE, AMP quantified by UV at 260 nm); assay type: biochemical
Method: Human recombinant soluble NPP1 (Val191—Leu591) expressed in murine myeloma NS0 cells was purchased from R&D Systems GmbH (Wiesbaden, Germany, purity > 95%, purified by using N-terminal His-tag).
For the natural substrate ATP, the enzyme inhibition assays were performed in 10 mM CHES buffer containing 400 μM of substrate along with different inhibitor concentrations. Incubation and operation conditions were the same as described above with artificial substrates. The analysis was performed by CE and the amounts of AMP produced were quantified by their UV absorption at 260 nm. Each analysis was repeated twice in three separate experiments.
Each analysis was performed in three separate experiments. The inhibition type of each inhibitor was then evaluated graphically from the Hanes-Woolf plots. For the determination of the (α)Ki-values the slope of the reciprocal lines from the Hanes-Woolf plot were plotted as a function of inhibitor concentrations using Prism 5.0.

NPP1 = details: cited from earlier work; for Ki: vs. ATP as a substrate, ref Iqbal et al., 2008
human NPP1 [6] = target: T1, human NPP1; set-up: method as in Lee and Müller, 2014; details: ref Lee and Müller, 2014; cited from earlier work
human NPP1 [7] = target: T1, human NPP1; set-up: method as in Namasivayam et al., 2017; details: substrate of NPP1; ref Namasivayam et al., 2017; cited from earlier work
human NPP1 [8] = target: T1, human NPP1; details: read-out: Ki, ATP; substrate ATP; mean ± SEM; ref Lee et al., 2015; cited from earlier work
human NPP1 [9] = target: T1, human NPP1; assay: Enzyme kinetic parameters of NPP1 substrates; assay type: biochemical; details: for kcat: substrate of human NPP1, pH 9.0, 37°C
Method: (§1) Enzyme kinetic parameters were measured for p-Nph-5′-TMP and p-Nph-5′-AMP, both being artificial substrates of human NPP1. Solutions with different concentrations of both substrates (ranging from 1.0 to 500 μM) were prepared in 10 mM CHES buffer (in mM: 1 MgCl2, 2 CaCl2, 10 CHES, pH 9.0) and added in a final volume of 100 μl to 96-well-plates. The enzyme reactions were initiated by the addition of 20 ng of human NPP1 (for p-Nph-5′-TMP), or 75 ng of human NPP1 (for p-Nph-5′-AMP). The mixture was incubated at 37°C for 15 min (p-Nph-5′-TMP), or 30 min (for p-Nph-5′-AMP), respectively, and subsequently terminated by the addition of 20 μl of 1.0 N aqueous NaOH solution. The amounts of p-nitrophenolate liberated were measured at 400 nm. Each analysis was repeated twice in three separate experiments.

[10] = substrate: Nc1ncnc2c1ncn2[C@@H]1O[C@H](COP(=O)(O)Oc2ccc([N+](=O)[O-])cc2)[C@@H](O)[C@H]1O; assay: Enzyme kinetic parameters of NPP1 substrates; assay type: biochemical; details: other: substrate of human NPP1, pH 9.0, 37°C
Method: as §1

[11] = substrate: Cc1cn([C@H]2C[C@H](O)[C@@H](COP(=O)(O)Oc3ccc([N+](=O)[O-])cc3)O2)c(=O)[nH]c1=O; assay: Enzyme kinetic parameters of NPP1 substrates; assay type: biochemical; details: other: substrate of human NPP1, pH 9.0, 37°C
Method: as §1

[12] = substrate p-Nph-5′-AMP, mean ± SD of three independent experiments, read-out: Ki ± SD, p-Nph-5′-AMP
[13] = substrate p-Nph-5′-TMP, mean ± SD of three independent experiments, read-out: Ki ± SD, p-Nph-5′-TMP

For `COc1ccc(NC(=O)CSc2nc3c(N)ncnc3[nH]2)cc1OC` [PZB08513136A, 2-(6-Amino-9H-purin-8-ylthio)-N-(3,4-dimethoxyphenyl)acetamide], the “fold difference in potency, p-Nph-5′-TMP vs. ATP as substrate” value (human NPP1 [1]) is listed as “more than 100 fold”, the Inhibition type (human NPP1 [2]) is listed as “Competitive” and the Ki (human NPP1 [3]; [12]) is listed as 14.9 ± 0.8 µM.

For `Nc1ncnc2c1ncn2[C@@H]1O[C@H](COP(=O)(O)CP(=O)(O)O)[C@@H](O)[C@H]1O` [α,β-metADP, adenosine 5′-(α,β-methylene)diphosphate], the Ki (human NPP1 [4]) was 1.28 ± 0.16 µM, the Ki (human NPP1 [5]) was 16.5 ± 3.1 µM and the Inhibition type (human NPP1 [2]) was “Competitive”. It also gave a Ki (human NPP1 [3]) of 25.8 ± 4.1 µM.

For `Cc1ccc(C(=O)Nc2ccc(S(=O)(=O)O)c3cc(S(=O)(=O)O)cc(S(=O)(=O)O)c23)cc1NC(=O)c1cccc(NC(=O)Nc2cccc(C(=O)Nc3cc(C(=O)Nc4ccc(S(=O)(=O)O)c5cc(S(=O)(=O)O)cc(S(=O)(=O)O)c45)ccc3C)c2)c1` [suramin], the Ki (NPP1) is given as 0.26 µM.

For `Nc1c(S(=O)(=O)O)cc(Nc2ccc(Nc3nc(Cl)nc(Nc4cccc(S(=O)(=O)O)c4)n3)c(S(=O)(=O)O)c2)c2c1C(=O)c1ccccc1C2=O` [reactive blue 2], the Ki (human NPP1 [4]) is listed as 0.198 ± 0.034 µM, the Ki (human NPP1 [5]) is listed as 0.141 ± 0.031 µM and the Ki (NPP1) is listed as 0.52 µM. For the same molecule, the Inhibition type (human NPP1 [2]) was “Non-competitive” and the Ki (human NPP1 [3]) was 0.176 ± 0.025 µM.

For `Nc1ncnc2c1ncn2[C@@H](C=O)O[C@@H](C=O)COP(=O)(O)OP(=O)(O)OP(=O)(O)O` [dialATP, adenosine 5′-triphosphate-2′,3′-dialdehyde], the “αKi ± SD, p-Nph-5′-TMP” value (human NPP1 [4]; αKi-value (un-competitive inhibitor), substrate p-Nph-5′-TMP, mean ± SD of three independent experiments) was 4.09 ± 0.41^b μM, the “αKi ± SD, ATP” value (human NPP1 [5]; αKi-value (un-competitive inhibitor), substrate ATP, mean ± SD of three independent experiments) was 6.82 ± 1.01^b μM and the Ki (human NPP1 [2]) was about 5 µM. The Inhibition type (human NPP1 [2]) was “Un-competitive”, the “manner of NPP1 inhibition” value (human NPP1 [6]) was “uncompetitive” and the “αKi ± SD, p-Nph-5′-AMP” value (human NPP1 [3]; αKi-value (un-competitive inhibitor), substrate p-Nph-5′-AMP, mean ± SD of three independent experiments) was 5.08 ± 0.33^b μM.

In the case of `Nc1ncnc2c1ncn2[C@@H]1O[C@H](COP(=O)(O)OP(=O)(O)OP(=O)(O)O)[C@@H](O)[C@H]1O` [ATP, adenosine 5′-triphosphate], the kcat (human NPP1 [7]) is given as 5.51 s⁻¹.

In the case of `Nc1ncnc2c1ncn2[C@@H](C=O)O[C@@H](C=O)COP(=O)(O)OP(=O)(O)O` [dialADP, Adenosine 5′-diphosphate-2′,3′-dialdehyde], the Ki (human NPP1 [4]; [13]) is reported as 5.03 ± 0.15 µM, the Ki (human NPP1 [5]) is reported as 5.62 ± 1.23 µM and the Ki (human NPP1 [2]) is reported as about 5 µM. For the same molecule, the Inhibition type (human NPP1 [2]) was “Non-competitive”, the “manner of NPP1 inhibition” value (human NPP1 [6]) was “non-competitive” and the Ki (human NPP1 [3]; [12]) was 5.09 ± 1.72 µM.

In the case of `COc1cc2ncnc(N3CCC(CCNS(N)(=O)=O)CC3)c2cc1OC` [SAR 03004, N-[2-[1-(6,7-Dimethoxyquinazolin-4-yl)piperidin-4-yl]ethyl]sulfuric diamide], the IC50 (NPP1; ATP as a substrate, ref Patel et al., 2009) is listed as […] and the Inhibition type (human NPP1 [2]) is listed as “Competitive”.

For [TiW11CoO40]^8−, the Ki (human NPP1 [4]; [13]) is given as 0.00199 ± 0.00033 µM, the Ki (human NPP1 [8]) is given as 0.00146 ± 1e-05 µM and the Inhibition type (human NPP1 [2]) is given as “Non-competitive”. It also gave a Ki (human NPP1 [3]; [12]) of 0.00174 ± 0.00099 µM.

For `Nc1ncnc2c1ncn2[C@@H]1O[C@H](COP(=O)(O)Oc2ccc([N+](=O)[O-])cc2)[C@@H](O)[C@H]1O` [p-Nph-5′-AMP, p-nitrophenyl 5′-adenosine monophosphate], the “Km-value fold higher than that for ATP” value (human NPP1 [9]; compared to natural substrate ATP) was over 20 fold and the kcat (human NPP1 [9]) was 2.51 s⁻¹.

For `CSc1nc(N)c2ncn([C@@H]3O[C@H](COP(=O)(O)OP(=O)(O)O)[C@@H](O)[C@H]3O)c2n1` [2-MeSADP, 2-methylthio-adenosine 5′-diphosphate], the Ki (human NPP1 [4]; [13]) was 2.18 ± 0.29 µM, the Ki (human NPP1 [5]) was 32.8 ± 7 µM and the Inhibition type (human NPP1 [2]) was “Competitive”. The Ki (human NPP1 [3]; [12]) was 35.4 ± 6.4 µM.

For `CSc1nc(N)c2ncn([C@@H]3O[C@H](COP(=O)(O)OP(=O)(O)OP(=O)(O)O)[C@@H](O)[C@H]3O)c2n1` [2-MeSATP, 2-methylthio-adenosine 5′-triphosphate], the Ki (human NPP1 [4]; [13]) was 4.47 ± 0.66 µM, the Ki (human NPP1 [5]) was 25.3 ± 5.9 µM and the Inhibition type (human NPP1 [2]) was “Competitive”. The Ki (human NPP1 [3]; [12]) was 39.9 ± 6.9 µM.

With `Nc1ncnc2c1ncn2[C@@H]1O[C@H](COP(=O)(O)CP(=O)(O)OP(=O)(O)O)[C@@H](O)[C@H]1O` [α,β-metATP, adenosine 5′-(α,β-methylene)triphosphate] the Inhibition type (human NPP1 [2]) was “Competitive”.

With `Cc1cn([C@H]2C[C@H](O)[C@@H](COP(=O)(O)Oc3ccc([N+](=O)[O-])cc3)O2)c(=O)[nH]c1=O` [p-Nph-5′-TMP, p-Nitrophenyl 5′-thymidine monophosphate] the “kcat-value fold higher than that for p-Nph-5′-AMP” value (human NPP1 [9]; compared to p-Nph-5′-AMP) was about 10 fold and the kcat (human NPP1 [9]) was 22.3 s⁻¹.

B1: human NPP1 (Homo sapiens) (protein)
chain: VEEPCESINEPQCPAGFETPPTLLFSLDGFRAEYLHTWGGLLPVISKLKKCGTYTKNMRPVYPTKTFPNHYSIVTGLYPESHGIIDNKMYDPKMNASFSLKSKEKFNPEWYKGEPIWVTAKYQGLKSGTFFWPGSDVEINGIFPDIYKMYNGSVPFEERILAVLQWLQLPKDERPHFYTLYLEEPDSSGHSYGPVSSEVIKALQRVDGMVGMLMDGLKELNLHRCLNLILISDHGMEQGSCKKYIYLNKYLGDVKNIKVIYGPAARLRPSDVPDKYYSFNYEGIARNLSCREPNQHFKPYLKHFLPKRLHFAKSDRIEPLTFYLDPQWQLALNPSERKYCGSGFHGSDNVFSNMQALFVGYGPGFKHGIEADTFENIEVYNLMCDLLNLTPAPNNGTHGSL
notes: Human recombinant soluble NPP1 (Val191—Leu591) expressed in murine myeloma NS0 cells; His-tag (N); purchased R&D Systems GmbH (Wiesbaden, Germany); host or cells: murine myeloma NS0 cells
In the case of B1, the Km [10] is reported as 188 µM, the kcat [10] is reported as 2.51 s⁻¹ and the kcat/Km [10] is reported as 13400 M⁻¹ s⁻¹. The Km [11] was 222 µM.
